Results taken from patent US5668146A, “Symmetrical bis-heteroarylmethoxyphenyliminoxyalkyl carboxylates as inhibitors of leukotriene biosynthesis” (Abbott Laboratories, priority 1996, dated 1997).

Columns and labels:
[1] = tested on: leukotriene biosynthesis; settings: oral; Prasit, et al., 1991; cited from earlier work
[2] = tested on: 5-Lipoxygenase From Stimulated LTB4 Formation in Human Polymorphonuclear Leukocytes; assay: Inhibition of calcium ionophore-induced LTB4 formation in human polymorphonuclear leukocytes (PMNL); type: cell-based; settings: calcium ionophore 8.3 μM, 10 min at 37° C., 15 min preincubation
Experimental: Inhibition of leukotriene biosynthesis was evaluated in an assay involving calcium ionophore-induced LTB4 expressed in human polymorphonuclear leukocytes (PMNL). Human PMNL isolated from heparinized (20 USP units/mL) venous blood (25 mL) obtained from healthy volunteers was layered over an equal volume of Ficoll-Hypaque Mono-Poly Resolving Medium (ICN Flow, Costa Mesa, Calif.) and centrifugated at 400×g for 40 minutes at 20° C. The PMNL was collected, erythrocytes lysed and washed 2× and suspended at 1.0×10^7 cells/mL in Earle's balanced salt solution with 17 mM Earle's HEPES. Aliquots of the cell suspension were preincubated with test compounds dissolved in DMSO (final concentration <2%) for 15 minutes and stimulated with calcium ionophore (final concentration 8.3 μM) for 10 minutes at 37° C. Incubations were stopped with the addition of two volumes of ice cold methanol followed by centrifuging the cell suspensions at 4° C. for 10 minutes at 450×g. The amount of LTB4 in the methanol extract was analyzed by enzyme-linked immunoassay or by HPLC analysis.

[3] = tested on: leukotriene biosynthesis; assay: Ionophore A-23187-Induced Rat Pleural Inflammation Model (in vivo leukotriene inhibition); settings: male rats, dosed one hour prior to intrapleural A23187 (20 μg), lavage after 30 min, eicosanoids by enzyme immunoassay
Experimental: Inhibition of leukotriene biosynthesis in vivo was evaluated using the Ionophore A-23187-Induced Rat Plueral Inflammation Model. Pleural inflammation was induced in male rats following the method of Rao, et al. (Rao, T. S., Currie, J. L., Shaffer, A. F., Isakson, P. C., Evaluation of 5-lipoxygenase Inhibitors, Zileuton, A78773 and ICI D-2 138 in an Ionophore (A-23187) Induced Pleural Inflammation Model in the Rat, Life Sciences, 53, 147 (1993)). Rats were dosed with experimental compounds in 0.2% methocel one hour prior to the intrapleural injection of the calcium ionophore, A23187. The rats where lightly anaesthetized with Pentrane (Abbott Laboratories) and injected intrapleurally with 0.5 ml of 2% ethanol in injectable saline (Abbott Laboratories) containing 20 μg of A23187 (Cal BioChem-Novabiochem). Thirty minutes later the animals were euthanised and the pleural cavities lavaged with ice cold saline (Abbott Laboratories). The lavage fluid was then added to ice cold methanol (final methanol concentration 30%) to lyse cells and precipitate protein. Eicosanoids were determined by enzyme immunoassay by standard methods.

Q: For `O=C(O)CSC(CCCc1ccc(Cl)cc1)c1ccc(OCc2ccc3ccccc3n2)cc1` (centres unmarked) [((4-(4-chlorophenyl)-1-(4-(2-quinolylmethoxy)phenyl)butyl)thio)acetic acid], which “orally active leukotriene biosynthesis inhibitor (in words)” value [1] is on record?
A: orally active leukotriene biosynthesis inhibitor

Q: For `O=C(O)C=NOC(c1ccc(OCc2ccc3ccccc3n2)cc1)c1ccc(OCc2ccc3ccccc3n2)cc1` [Example 1, bis(4-(2-quinolylmethoxy)phenyl)methyliminoxyacetic acid], which IC50 [2] is on record?
A: 0.068 µM

Q: What does the source list for `CC(=NOC(c1ccc(OCc2ccc3ccccc3n2)cc1)c1ccc(OCc2ccc3ccccc3n2)cc1)C(=O)O` [Example 2, 2-(bis(4-(2-quinolylmethoxy)phenyl)methyliminoxy)propionic acid]?
A: ED50 [3]: 2 mg/kg; IC50 [2]: 0.16 µM

Q: With `CC(=NOC(c1ccc(OCc2ccc3cc(F)ccc3n2)cc1)c1ccc(OCc2ccc3cc(F)ccc3n2)cc1)C(=O)O` [Example 6, 2-(bis(4-(6-fluoro-2-quinolylmethoxy)phenyl)methyliminoxy)propionic acid] as the compound, how does the IC50 [2] read?
A: 0.04 µM

Q: What does the source list for `CC(CCC(=O)O)=NOC(c1ccc(OCc2ccc3ccccc3n2)cc1)c1ccc(OCc2ccc3ccccc3n2)cc1` [Example 7, 4-(bis(4-(2-quinolylmethoxy)phenyl)methyliminoxy)pentanoic acid]?
A: ED50 [3]: 1 mg/kg; IC50 [2]: 0.05 µM

Q: With `CC(/C=C/C(=O)O)=NOC(c1ccc(OCc2ccc3ccccc3n2)cc1)c1ccc(OCc2ccc3ccccc3n2)cc1` [Example 8] as the compound, how does the IC50 [2] read?
A: 0.03 µM
